The subject of the test is CD8F1 mice, subcutaneous mammary adenocarcinoma, T/C%. Nature of the test: NCI In Vivo Anticancer Drug Screen. Data for tumor model Mammary Adenocarcinoma CD8F1 (subcutaneous) in CD8F1. Particulars: higher = larger tumour. A digest of the protocol: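 Transplantable tumors were established in mice, animals were dosed with compound or vehicle, and survival or tumor size was then measured in both groups. The treated result was divided by the control result.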

[1] abbreviates: endpoint: median tumor weight (est.), dose: 12.5 mg/kg/injection, schedule: Q07DX005 (ip), vehicle: saline with Tween-80.
Setting [2] is: endpoint: median tumor weight (est.), dose: 25.0 mg/kg/injection, schedule: Q07DX005 (ip), vehicle: saline with Tween-80.
[3] abbreviates: endpoint: median tumor weight (est.), dose: 50.0 mg/kg/injection, schedule: Q07DX005 (ip), vehicle: saline with Tween-80.
[4] abbreviates: endpoint: median tumor weight (est.), dose: 100.0 mg/kg/injection, schedule: Q07DX005 (ip), vehicle: saline with Tween-80.
Where [5] appears, read: endpoint: median tumor weight (est.), dose: 200.0 mg/kg/injection, schedule: Q07DX005 (ip), vehicle: saline with Tween-80.
Setting [6] is: endpoint: median tumor weight change, dose: 125.0 mg/kg/injection, schedule: Q01DX001 (ip), vehicle: saline with Tween-80.
Setting [7] is: endpoint: median tumor weight change, dose: 500.0 mg/kg/injection, schedule: Q01DX001 (ip), vehicle: saline with Tween-80.
Where [8] appears, read: endpoint: median tumor weight (est.), dose: 25.0 mg/kg/injection, schedule: Q07DX005 (ip), vehicle: saline.
Where [9] appears, read: endpoint: median tumor weight (est.), dose: 100.0 mg/kg/injection, schedule: Q07DX005 (ip), vehicle: saline.
Where [10] appears, read: endpoint: median tumor weight (est.), dose: 200.0 mg/kg/injection, schedule: Q07DX005 (ip), vehicle: saline.
The mark [11] stands for this setting: endpoint: median tumor weight (est.), dose: 400.0 mg/kg/injection, schedule: Q07DX005 (ip), vehicle: saline.
[12] abbreviates: endpoint: median tumor weight (est.), dose: 800.0 mg/kg/injection, schedule: Q07DX005 (ip), vehicle: saline.
Setting [13] is: endpoint: median tumor weight (est.), dose: 0.12 mg/kg/injection, schedule: Q07DX005 (ip), vehicle: saline.
Setting [14] is: endpoint: median tumor weight (est.), dose: 0.25 mg/kg/injection, schedule: Q07DX005 (ip), vehicle: saline.
Where [15] appears, read: endpoint: median tumor weight (est.), dose: 0.5 mg/kg/injection, schedule: Q07DX005 (ip), vehicle: saline.
[16] abbreviates: endpoint: median tumor weight (est.), dose: 1.0 mg/kg/injection, schedule: Q07DX005 (ip), vehicle: saline.
[17] abbreviates: endpoint: median tumor weight change, dose: 50.0 mg/kg/injection, schedule: Q01DX001 (ip), vehicle: suspension in saline.
The mark [18] stands for this setting: endpoint: median tumor weight change, dose: 250.0 mg/kg/injection, schedule: Q01DX001 (ip), vehicle: saline.

Drawing on PubChem BioAssay AID220 (DTP/NCI, 2004), this text covers T/C for 14 compounds.

Each structure is given as a SMILES string. Several values for one entry are separate records, joined by “and”; a condition that tells them apart may be missing. Equal entries are not always repeated. Inconclusive results are not listed.

In the case of `CCOC(=O)C1(c2ccccc2)C(=O)Oc2ccccc21` (stereo not drawn), the T/C is 84 % of control under setting [1]; 69 % of control under setting [2]; 97 % of control under setting [3]; 119 % of control under setting [4]; 113 % of control under setting [5]; 70 % of control (endpoint: median tumor weight (est.), dose: 400.0 mg/kg/injection, schedule: Q07DX005 (ip), vehicle: saline with Tween-80). Moreover, the T/C under setting [6] is 82 % of control; the T/C under setting [7] was 71 % of control; the T/C (endpoint: median tumor weight change, dose: 1000.0 mg/kg/injection, schedule: Q01DX001 (ip), vehicle: saline with Tween-80) was 61 % of control; the T/C (endpoint: median tumor weight change, dose: 2000.0 mg/kg/injection, schedule: Q01DX001 (ip), vehicle: saline with Tween-80) is 100 % of control.
For `NC(=O)NO`, the T/C under setting [8] is 67 % of control; the T/C under setting [9] is 116 % of control; the T/C under setting [10] was 56 % of control; the T/C under setting [11] was 48 % of control; the T/C under setting [12] was 59 % of control.
As to `CCC1(O)CC2CN(CCc3c([nH]c4ccccc34)C(C(=O)OC)(c3cc4c(cc3OC)N(C)C3C(O)(C(N)=O)C(O)C5(CC)C=CCN6CCC43C65)C2)C1` (stereo not drawn) (tested in a mixture with another compound), the T/C under setting [13] is 87 % of control, the T/C under setting [14] was 74 % of control, the T/C under setting [15] is 51 % of control and the T/C under setting [16] was 16 % of control.
Regarding `CCc1ncnc2cc(OCC3CO3)c(OC)cc12` (stereo not drawn), the T/C is, setting by setting: (endpoint: median tumor weight change, dose: 25.0 mg/kg/injection, schedule: Q01DX001 (ip), vehicle: suspension in saline) 118 % of control; under setting [17], 110 % of control; (endpoint: median tumor weight change, dose: 100.0 mg/kg/injection, schedule: Q01DX001 (ip), vehicle: suspension in saline) 35 % of control; (endpoint: median tumor weight change, dose: 400.0 mg/kg/injection, schedule: Q01DX001 (ip), vehicle: suspension in saline) 93 % of control.
Consider `O=Cc1ccc(C(Cl)(Cl)Cl)cc1`, for which the T/C was 94 % of control under setting [1]; 55 % of control under setting [2]; 97 % of control under setting [3]; 68 % of control under setting [4]; 81 % of control under setting [5].
Take `CN(C)N=Nc1cccc(C(N)=O)c1`: the T/C by setting is: (endpoint: median tumor weight (est.), dose: 20.0 mg/kg/injection, schedule: Q07DX005 (ip), vehicle: Klucel (hydroxypropylcellulose) (HPC)) 80 % of control; (endpoint: median tumor weight (est.), dose: 160.0 mg/kg/injection, schedule: Q07DX005 (ip), vehicle: Klucel (hydroxypropylcellulose) (HPC)) 54 % of control.
Turning to `O=CN(SSN(C=O)C1CCCCC1)C1CCCCC1`, the T/C runs as follows: under setting [2], 101 % of control; under setting [3], 123 % of control; under setting [5], 100 % of control.
As to `O=P(O)(NCCCl)NCCCl`, the T/C reads like this: (endpoint: median tumor weight change, dose: 25.0 mg/kg/injection, schedule: Q01DX001 (ip), vehicle: saline) 49 % of control; (endpoint: median tumor weight change, dose: 50.0 mg/kg/injection, schedule: Q01DX001 (ip), vehicle: saline) 97 % of control; under setting [17], -39 % of control; (endpoint: median tumor weight change, dose: 100.0 mg/kg/injection, schedule: Q01DX001 (ip), vehicle: saline) 41 % of control; (endpoint: median tumor weight change, dose: 200.0 mg/kg/injection, schedule: Q01DX001 (ip), vehicle: saline) -56 % of control.
For `COc1cccc2c1C(=O)c1c(O)c3c(c(O)c1C2=O)C[C@@](O)(C(O)CO)C[C@@H]3OC1CC(N)C(O)C(C)O1` (stereo partly drawn), the T/C runs as follows: (endpoint: mean tumor weight, dose: 6.0 mg/kg/injection, schedule: Q07DX006 (ip), vehicle: saline) 33 % of control; (endpoint: mean tumor weight, dose: 12.0 mg/kg/injection, schedule: Q07DX006 (ip), vehicle: saline) 45 % of control; (endpoint: median tumor weight (est.), dose: 3.0 mg/kg/injection, schedule: Q07DX005 (ip), vehicle: saline) 77 % of control; (endpoint: median tumor weight (est.), dose: 6.0 mg/kg/injection, schedule: Q07DX005 (ip), vehicle: saline) 48 % of control; (endpoint: median tumor weight (est.), dose: 12.0 mg/kg/injection, schedule: Q07DX005 (ip), vehicle: saline) 26 % of control.
Consider `CC[C@](O)(C(=O)O)c1cc2n(c(=O)c1CO)Cc1cc3ccccc3nc1-2`, for which the T/C (endpoint: mean tumor weight (est.), dose: 20.0 mg/kg/injection, schedule: Q07DX004 (ip), vehicle: saline) is 70 % of control; the T/C (endpoint: mean tumor weight (est.), dose: 40.0 mg/kg/injection, schedule: Q07DX004 (ip), vehicle: saline) was 61 % of control; the T/C (endpoint: mean tumor weight (est.), dose: 60.0 mg/kg/injection, schedule: Q07DX004 (ip), vehicle: saline) was 48 % of control; the T/C (endpoint: mean tumor weight, dose: 2.5 mg/kg/injection, schedule: Q01DX009 (ip), vehicle: saline) is 55 % of control; the T/C (endpoint: mean tumor weight, dose: 10.0 mg/kg/injection, schedule: Q07DX006 (ip), vehicle: saline) was 13 % of control; the T/C (endpoint: mean tumor weight, dose: 20.0 mg/kg/injection, schedule: Q07DX006 (ip), vehicle: saline) is 36 % of control and 42 % of control. Also, the T/C by setting is: (endpoint: mean tumor weight, dose: 20.0 mg/kg/injection, schedule: Q07DX007 (ip), vehicle: saline) 102 % of control; (endpoint: mean tumor weight, dose: 40.0 mg/kg/injection, schedule: Q07DX006 (ip), vehicle: saline) 23 % of control; (endpoint: mean tumor weight, dose: 40.0 mg/kg/injection, schedule: Q07DX007 (ip), vehicle: saline) 71 % of control; (endpoint: mean tumor weight, dose: 60.0 mg/kg/injection, schedule: Q07DX006 (ip), vehicle: saline) 2 % of control; (endpoint: mean tumor weight, dose: 80.0 mg/kg/injection, schedule: Q07DX007 (ip), vehicle: saline) 49 % of control; (endpoint: median tumor weight (est.), dose: 6.25 mg/kg/injection, schedule: Q07DX005 (ip), vehicle: saline) 58 % of control. Moreover, the T/C runs as follows: (endpoint: median tumor weight (est.), dose: 12.5 mg/kg/injection, schedule: Q07DX005 (ip), vehicle: saline) 59 % of control; under setting [8], 41 % of control.
Consider `Nc1cccc(=O)[nH]1`, for which the T/C is 21 % of control (endpoint: median tumor weight (est.), dose: 50.0 mg/kg/injection, schedule: Q07DX005 (ip), vehicle: saline); 68 % of control under setting [9]; 70 % of control under setting [10]; 96 % of control and 100 % of control under setting [11]; 47 % of control (endpoint: median tumor weight (est.), dose: 400.0 mg/kg/injection, schedule: Q07DX005 (ip), vehicle: suspension in saline); 78 % of control under setting [12]. For the same compound, the T/C reads like this: (endpoint: median tumor weight (est.), dose: 800.0 mg/kg/injection, schedule: Q07DX005 (ip), vehicle: suspension in saline) 56 % of control; (endpoint: median tumor weight (est.), dose: 1600.0 mg/kg/injection, schedule: Q07DX005 (ip), vehicle: suspension in saline) 59 % of control; (endpoint: median tumor weight change, dose: 62.5 mg/kg/injection, schedule: Q01DX001 (ip), vehicle: saline) 55 % of control; (endpoint: median tumor weight change, dose: 125.0 mg/kg/injection, schedule: Q01DX001 (ip), vehicle: saline) 78 % of control; under setting [18], 90 % of control; (endpoint: median tumor weight change, dose: 500.0 mg/kg/injection, schedule: Q01DX001 (ip), vehicle: saline) 72 % of control. The T/C (endpoint: median tumor weight change, dose: 1000.0 mg/kg/injection, schedule: Q01DX001 (ip), vehicle: saline) is 70 % of control.
Take `C1CN1c1nc(N2CC2)nc(N2CC2)n1`: the T/C by setting is: under setting [13], 64 % of control and 86 % of control; under setting [14], 23 % of control and 28 % of control; under setting [15], 6 % of control and 10 % of control; under setting [16], 1 % of control; (endpoint: median tumor weight change, dose: 0.62 mg/kg/injection, schedule: Q01DX001 (ip), vehicle: suspension in saline) 18 % of control; (endpoint: median tumor weight change, dose: 2.5 mg/kg/injection, schedule: Q01DX001 (ip), vehicle: suspension in saline) -17 % of control and -41 % of control.
Turning to `O=C1c2ccccc2C(=O)c2c3c(cc(NCCNCCO)c21)N(CCO)CCN3`, the T/C is 97 % of control under setting [6]; 91 % of control (endpoint: median tumor weight change, dose: 250.0 mg/kg/injection, schedule: Q01DX001 (ip), vehicle: saline with Tween-80); 77 % of control under setting [7].
Consider `O=C(O)C(CSC(c1ccccc1)(c1ccccc1)c1ccccc1)N=Cc1cccs1` (stereo not drawn), for which the T/C reads like this: (endpoint: median tumor weight change, dose: 62.5 mg/kg/injection, schedule: Q01DX001 (ip), vehicle: suspension in saline) 112 % of control; (endpoint: median tumor weight change, dose: 125.0 mg/kg/injection, schedule: Q01DX001 (ip), vehicle: suspension in saline) 111 % of control; under setting [18], 64 % of control; (endpoint: median tumor weight change, dose: 250.0 mg/kg/injection, schedule: Q01DX001 (ip), vehicle: suspension in saline) 95 % of control.
